According to patent US8409552B2, “Anthranillic acid amides and derivatives thereof as cosmetic and pharmaceutical active compounds” (Symrise AG, priority 2002, dated 2013):
Values after ≈ are worked out from the molar mass of the structure shown. Read-outs that look alike come from different tables or passages of the source.

How the values were obtained:
[1] = test system: Mast cells from the peritoneal tissue of rats; experiment: Inhibition of substance P-induced release of histamine from mast cells; format: cell-based, rat; conditions: for inhibition at 0.5 µg/mL / inhibition at 5 µg/mL / inhibition at 50 µg/mL: Rattus norvegicus, Mast cell, 2 min, substance P 10 μM, 37° C., based on histamine content of cells stimulated with substance P; for inhibition at 0.5 µg/mL: 0.5 ppm synthetic substance; for inhibition at 5 µg/mL: 5 ppm synthetic substance; for inhibition at 50 µg/mL: 50 ppm synthetic substance; for activity in inhibiting substance P-induced histamine release, in words: structure/activity considerations, Tables 1a/1b; for IC50: positive control, read-out: concentration for 50% inhibition of substance P-induced release of histamine
Description: Stock solutions: avenanthramides 2 to 19 (structural formulae: see Table 1a) and dianthramides 20-29 (structural formulae: see Table 1b); concentration: 1% in ethanol; storage before use at 4° C.) Mast cells from the peritoneal tissue of rats were isolated by centrifuging on metrizamide and stimulated with substance P (10 μM). […] The synthetically prepared avenanthramides and dianthramides of the Formulae 2 to 29 (cf. […] Test system: The final test solutions were incubated for 2 minutes in the presence of substance P and of the reference substance (CaCl2) or of the particular sample to be tested (incubation temperature: 37° C.). Cells that had been incubated in the absence of substance P and reference or sample substance served as blank. The reaction solutions were first freed from cell constituents by centrifuging. The histamine present in the supernatant liquor was then converted to a derivative with OPT and the fluorescence of the solutions was determined photometrically (fluorometer Cytofluor 2350). […] The values for the various avenanthramides are given in Table 2 as % inhibition based on the histamine content of cells stimulated with substance P without the addition of inhibitors.

rat mast cells = conditions: oral application, dose of 200 mg/kg; cited from earlier work
mast cells [2] = conditions: cited from earlier work
mast cells [3] = conditions: cited from earlier work; remark: listed apart in the source
mast cells [4] = experiment: Substance P-induced release of histamine from mast cells (Hachisuka et al.); format: cell-based; conditions: 10^−3 M converted with molecular weight 327
Source text: As Komatsu et al report, tranilast inhibits the antigen-(DNP ascaris; monoclonal IgE antibody with 2,4-dinitrophenyl-specificity) induced release of histamine from mast cells in the concentration range of 10^−3 to 10^−5 M. It was possible to achieve 50% inhibition of the histamine release at a concentration of approximately 10^−4 M. On the other hand, the influence of other anthranilic acid amides on the inhibition of the release of histamine from mast cells was not described in the publication. Hachisuka et al. (Arch. Dermatol. Res. Vol. 280, p. 158-162; 1988) investigated the influence of various active compounds on the inhibition of the substance P-induced release of histamine from mast cells. Here the activity of disodium chromogylcate (sic), ketotifen and tranilast was compared. […] Other anthranilic acid amides were not investigated in more detail within the framework of this research work either.
The comparatively low activity of tranilast agrees with the research carried out by Hachisuka et al. (Arch Dermatol Res Vol. 280, p. 158-162; 1988). […] Apparently, the alkylation of the vicinal hydroxyl groups in the cinnamic acid part or dihydrocinnamic acid part is accompanied by a significant reduction in activity.

| SMILES | inhibition at 0.5 µg/mL [1] [%] | inhibition at 5 µg/mL [1] [%] | inhibition at 50 µg/mL [1] [%] | other results |
| --- | --- | --- | --- | --- |
| COc1ccc(/C=C/C(=O)Nc2ccc(O)cc2C(=O)O)cc1OC [compound 13] | 17 | 2 | 30 |  |
| O=C(Nc1ccccc1C(=O)O)c1ccccc1O [compound 29] | -1 | 15 | 23 |  |
| O=C(/C=C/c1ccc(O)cc1)Nc1ccccc1C(=O)O [substance 10, N-(4-hydroxycinnamoyl)anthranilic Acid] |  |  |  | inhibition of antigen-induced destruction of rat mast cells (rat mast cells): 36.7% |
| O=C(/C=C/c1ccccc1)Nc1ccccc1C(=O)O [compound 17] | 4 | 7 | 6 |  |
| COc1ccc(CCC(=O)Nc2ccccc2C(=O)O)cc1OC [compound 19] | -15 | -22 | -4 |  |
| COC(=O)c1ccccc1NC(=O)CCc1ccc(OC)c(OC)c1 [compound 16] | 26 | 25 | 7 |  |
| O=C([O-])c1cc(=O)c2c(OCC(O)COc3cccc4oc(C(=O)[O-])cc(=O)c34)cccc2o1.[Na+].[Na+] [DSCG, disodium cromoglycate] |  |  |  | inhibition of substance P-induced histamine release (mast cells [2]; at 10^−3 M): 41% |
| O=C(/C=C/c1ccc(O)c(O)c1)Nc1ccccc1C(=O)O [compound 2] | 7 | 80 | 108 | activity in inhibiting substance P-induced histamine release, in words [1]: complete inhibition of the histamine release |
| COc1ccc(/C=C/C(=O)Nc2ccccc2C(=O)O)cc1OC [substance 15, N-(3,4-dimethoxy-cinnamoyl)anthranilic acid] |  |  | 21 | IC50 (mast cells [2]; Hachisuka et al. 1988, read-out: concentration for 50% inhibition of the substance P-induced histamine release): ~1000 µM; concentration range inhibiting antigen-induced release of histamine (mast cells [3]; DNP ascaris, monoclonal IgE antibody with 2,4-dinitrophenyl-specificity): 10^−3 to 10^−5 M; IC50 (mast cells [3]; antigen-induced (DNP ascaris), read-out: concentration for 50% inhibition of the histamine release): ~100 µM; inhibition of antigen-induced destruction of rat mast cells (rat mast cells): 46.1%; concentration for 50% inhibition of the substance P-induced histamine release (mast cells [4]): 327 ppm; IC50 (mast cells [4]; Mast cell, read-out: concentration for 50% inhibition of the substance P-induced histamine release): 327 µg/mL (≈ 999 µM) |
| COc1cc(C(=O)Nc2ccccc2C(=O)O)ccc1O [compound 25, 2-[(4-hydroxy-3-methoxybenzoyl)amino]-benzoic acid] | 8 | 42 | 51 |  |
| O=C(Nc1ccccc1C(=O)O)c1ccc(O)cc1 [compound 24, 2-[(4-hydroxy-benzoyl)amino]benzoic acid] | 7 | 19 | 55 |  |
| O=C(Nc1ccc(O)cc1C(=O)O)c1ccc(O)cc1 [compound 21] | -15 | 48 | 76 |  |
| O=C(Nc1ccccc1C(=O)O)c1cccc(O)c1 [compound 28, 2-[(3-hydroxy-benzoyl)amino]benzoic acid] | 12 | 25 | 35 |  |
| O=C(Nc1ccccc1C(=O)O)c1cc(O)c(O)c(O)c1 [compound 22, 2-[(3,4,5-trihydroxy-benzoyl)amino]benzoic acid] | 39 | 72 | 71 |  |
| COC(=O)c1ccccc1NC(=O)/C=C/c1ccc(OC)c(OC)c1 [compound 18] | 5 | -3 | 6 |  |
| [Ca+2].[Cl-].[Cl-] [calcium chloride, reference compound] |  |  |  | IC50 ([1]; test series 3.1 (synthetic anthranilic acid amides)): 639 µM; IC50 ([1]; test series 3.2 (oat fraction vs reconstituted product)): 432 µM |

| SMILES | inhibition at 0.5 µg/mL [1] [%] | inhibition at 5 µg/mL [1] [%] | inhibition at 50 µg/mL [1] [%] | other results |
| --- | --- | --- | --- | --- |
| COc1ccc(/C=C/C(=O)Nc2ccccc2C(=O)O)cc1OC [compound 15] | 23 | 22 |  |  |
| COc1cc(/C=C/C(=O)Nc2ccc(O)cc2C(=O)O)ccc1O [compound 4] | 3 | 49 | 59 |  |
| O=C(Nc1ccccc1C(=O)O)c1ccccc1 [compound 27] | 27 | 28 | 39 |  |
| O=C(/C=C/c1ccc(O)cc1)Nc1ccc(O)cc1C(=O)O [compound 7] | 27 | 26 | 40 |  |
| O=C(/C=C/c1ccc(O)cc1)Nc1cc(O)ccc1C(=O)O [compound 6] | -9 | 1 | 41 |  |
| COc1ccc(/C=C/C(=O)Nc2ccccc2C(=O)O)cc1 [compound 14] | 21 | 30 | 24 |  |
| COc1ccc(C(=O)Nc2ccccc2C(=O)O)cc1O [compound 23, 2-[(3-hydroxy-4-methoxybenzoyl)amino]-benzoic acid] | 9 | 29 | 69 |  |
| COc1ccc(CCC(=O)Nc2ccc(O)cc2C(=O)O)cc1OC [compound 11] | -6 | 11 | 36 |  |
| COc1cc(/C=C/C(=O)Nc2ccccc2C(=O)O)ccc1O [compound 9] | 11 | 19 | 39 |  |
| O=C(/C=C/c1ccc(O)cc1)Nc1ccccc1C(=O)O [compound 10] | -10 | 8 | 37 |  |
| O=C(/C=C/c1ccc(O)c(O)c1)Nc1ccc(O)cc1C(=O)O [compound 3] | 11 | 62 | 106 | activity in inhibiting substance P-induced histamine release, in words [1]: complete inhibition of the histamine release |
| O=C(CCc1ccc(O)cc1)Nc1ccccc1C(=O)O [compound 8] | 13 | 26 | 40 |  |
| O=C(Nc1ccccc1C(=O)O)c1ccc(O)cc1O [compound 26] | -13 | 22 | 48 |  |
| O=C(CCc1ccc(O)cc1)Nc1ccc(O)cc1C(=O)O [compound 5] | 7 | 17 | 47 |  |
| O=C(Nc1ccccc1C(=O)O)c1ccc(O)c(O)c1 [compound 20, 2-[(3,4-dihydroxybenzoyl)amino]benzoic acid] | 14 | 76 | 110 | activity in inhibiting substance P-induced histamine release, in words [1]: greatest activity |
| O=C(/C=C/c1ccccc1)Nc1ccc(O)cc1C(=O)O [compound 12] | -5 | 0 | 34 |  |
